Common to all, as to experiment: KINOMEscan competition binding
Settings in all cases: compound 10.0 µM

The target of test [1] is ACVR2B (human) (UniProt Q13705).
The target of test [2] is CAMKK1 (human) (UniProt Q8N5S9).
Test [3] concerns the target CDK13 (human) (UniProt Q14004).
Test [4] addresses CRK2 (P.falciparum) (UniProt P61075).
For test [5], the target named is CSNK1A1 (human) (UniProt P48729).
Test [6] concerns the target DSTYK (human) (UniProt Q6XUX3).
The target in test [7] is DYRK2 (human) (UniProt Q92630).
The subject of test [8] is EGFR (human), P00533 [T790M/L858R].
For test [9], the target named is EPHB6 (human) (UniProt O15197).
EPHB6 (human), sequence (O15197 whole entry, looked up): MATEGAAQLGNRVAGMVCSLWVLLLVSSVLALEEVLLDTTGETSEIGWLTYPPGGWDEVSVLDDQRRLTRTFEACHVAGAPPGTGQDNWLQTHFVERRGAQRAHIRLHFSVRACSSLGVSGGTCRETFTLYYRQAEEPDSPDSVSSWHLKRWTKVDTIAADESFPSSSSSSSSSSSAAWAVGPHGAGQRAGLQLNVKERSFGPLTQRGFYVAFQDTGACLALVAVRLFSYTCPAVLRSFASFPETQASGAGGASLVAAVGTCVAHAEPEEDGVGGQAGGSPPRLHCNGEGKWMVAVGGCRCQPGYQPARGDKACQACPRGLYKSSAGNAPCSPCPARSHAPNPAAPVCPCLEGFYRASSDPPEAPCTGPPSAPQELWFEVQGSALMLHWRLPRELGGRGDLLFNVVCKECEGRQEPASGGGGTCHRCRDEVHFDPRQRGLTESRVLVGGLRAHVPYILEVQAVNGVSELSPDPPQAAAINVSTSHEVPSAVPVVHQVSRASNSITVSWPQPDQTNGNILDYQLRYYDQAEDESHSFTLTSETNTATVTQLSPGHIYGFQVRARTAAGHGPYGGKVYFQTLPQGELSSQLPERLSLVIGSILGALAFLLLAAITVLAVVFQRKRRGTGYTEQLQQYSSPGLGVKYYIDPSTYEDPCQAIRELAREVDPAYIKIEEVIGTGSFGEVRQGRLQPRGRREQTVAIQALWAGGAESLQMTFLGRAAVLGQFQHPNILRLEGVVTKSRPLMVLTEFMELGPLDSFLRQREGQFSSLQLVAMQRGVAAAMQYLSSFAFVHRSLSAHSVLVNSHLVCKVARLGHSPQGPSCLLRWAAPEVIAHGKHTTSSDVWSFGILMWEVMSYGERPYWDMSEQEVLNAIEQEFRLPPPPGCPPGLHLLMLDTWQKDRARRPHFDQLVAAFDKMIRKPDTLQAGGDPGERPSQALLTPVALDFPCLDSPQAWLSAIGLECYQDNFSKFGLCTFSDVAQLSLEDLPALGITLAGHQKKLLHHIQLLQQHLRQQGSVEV
In test [10] the test system is FLT3 (human), P36888 [R834Q].
For test [11], the target named is GRK7 (human) (UniProt Q8WTQ7).
The target of test [12] is HIPK2 (human) (UniProt Q9H2X6).
Test [13] has as its target ICK (human) (UniProt Q9UPZ9).
The target in test [14] is IRAK4 (human) (UniProt Q9NWZ3).
Test [15] deals with KIT (human), P10721 [A829P].
Test [16] deals with LRRK2 (human), Q5S007 [G2019S].
In test [17] the target is MAK (human) (UniProt P20794).
Test [18] has as its target MAP3K1 (human) (UniProt Q13233).
Test [19] has as its target MAP3K6 (human) (UniProt O95382).
In test [20] the target is MATK (human) (UniProt P42679).
Test [21] deals with MET (human), P08581 [Y1235D].
Test [22] deals with NEK11 (human) (UniProt Q8NG66).
Test [23] addresses NEK4 (human) (UniProt P51957).
The target in test [24] is NIM1 (human) (UniProt Q8IY84).
Test [25] concerns the target OXSR1 (human) (UniProt O95747).
The target in test [26] is PIK3C2G (human) (UniProt O75747).
Test [27] relates to PIK3CA (human), P42336 [E542K].
PIK3CA (human), P42336 [E542K], sequence (P42336 whole entry E542K, looked up): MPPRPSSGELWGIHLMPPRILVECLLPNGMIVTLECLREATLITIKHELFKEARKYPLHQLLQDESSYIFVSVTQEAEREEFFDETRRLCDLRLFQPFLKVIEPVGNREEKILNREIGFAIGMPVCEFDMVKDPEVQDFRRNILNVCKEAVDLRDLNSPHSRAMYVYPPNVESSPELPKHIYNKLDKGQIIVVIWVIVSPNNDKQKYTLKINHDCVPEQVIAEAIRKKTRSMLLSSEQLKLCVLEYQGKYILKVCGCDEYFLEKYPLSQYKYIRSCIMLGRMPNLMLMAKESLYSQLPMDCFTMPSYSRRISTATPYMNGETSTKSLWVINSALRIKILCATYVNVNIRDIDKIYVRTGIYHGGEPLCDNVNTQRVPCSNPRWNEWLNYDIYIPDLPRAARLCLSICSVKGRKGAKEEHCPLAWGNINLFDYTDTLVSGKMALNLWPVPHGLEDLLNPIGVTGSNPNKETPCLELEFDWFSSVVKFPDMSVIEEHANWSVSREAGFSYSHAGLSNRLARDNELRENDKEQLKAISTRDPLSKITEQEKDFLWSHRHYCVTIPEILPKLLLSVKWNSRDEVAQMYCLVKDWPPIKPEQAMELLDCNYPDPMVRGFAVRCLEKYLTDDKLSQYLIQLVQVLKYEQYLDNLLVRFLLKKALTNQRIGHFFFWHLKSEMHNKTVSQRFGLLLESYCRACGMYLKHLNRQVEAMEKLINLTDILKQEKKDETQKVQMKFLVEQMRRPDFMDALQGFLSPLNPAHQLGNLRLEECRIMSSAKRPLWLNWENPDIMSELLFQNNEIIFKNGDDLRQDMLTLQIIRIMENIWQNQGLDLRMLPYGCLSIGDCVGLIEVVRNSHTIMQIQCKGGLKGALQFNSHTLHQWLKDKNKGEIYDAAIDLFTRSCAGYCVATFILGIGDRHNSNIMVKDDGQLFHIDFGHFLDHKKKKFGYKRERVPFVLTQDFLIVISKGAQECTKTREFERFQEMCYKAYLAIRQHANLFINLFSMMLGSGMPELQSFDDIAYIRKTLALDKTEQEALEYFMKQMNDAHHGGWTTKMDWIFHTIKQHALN
The subject of test [28] is PIK3CA (human), P42336 [I800L].
In test [29] the target is PIP4K2C (human) (UniProt Q8TBX8).
The target in test [30] is PIP5K1C (human) (UniProt O60331).
Test [31] has as its target PKN3 (M.tuberculosis) (UniProt Q6P5Z2).
The target in test [32] is PLK2 (human) (UniProt Q9NYY3).
PLK2 (human), sequence (Q9NYY3 whole entry, looked up): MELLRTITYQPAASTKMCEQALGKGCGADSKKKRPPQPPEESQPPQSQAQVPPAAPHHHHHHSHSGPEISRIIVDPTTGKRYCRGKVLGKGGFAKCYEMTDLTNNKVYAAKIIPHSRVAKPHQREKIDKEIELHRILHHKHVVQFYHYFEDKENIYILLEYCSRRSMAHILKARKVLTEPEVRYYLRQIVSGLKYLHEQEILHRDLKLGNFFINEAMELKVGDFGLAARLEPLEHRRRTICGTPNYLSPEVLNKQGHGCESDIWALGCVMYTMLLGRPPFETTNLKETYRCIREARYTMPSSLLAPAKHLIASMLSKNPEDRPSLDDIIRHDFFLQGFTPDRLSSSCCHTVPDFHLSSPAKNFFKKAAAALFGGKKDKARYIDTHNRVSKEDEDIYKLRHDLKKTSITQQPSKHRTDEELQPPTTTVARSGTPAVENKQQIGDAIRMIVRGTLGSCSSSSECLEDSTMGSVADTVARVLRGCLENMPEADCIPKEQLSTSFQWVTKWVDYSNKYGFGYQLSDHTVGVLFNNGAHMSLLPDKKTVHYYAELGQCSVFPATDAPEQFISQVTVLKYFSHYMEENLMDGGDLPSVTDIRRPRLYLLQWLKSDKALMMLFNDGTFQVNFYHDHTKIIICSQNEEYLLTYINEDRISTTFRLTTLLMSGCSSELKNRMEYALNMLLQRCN
For test [33], the target named is SGK3 (human) (UniProt Q96BR1).
In test [34] the target is SIK3 (human) (UniProt Q9Y2K2).
For test [35], the target named is STK38 (human) (UniProt Q15208).
STK38 (human), sequence (Q15208 whole entry, looked up): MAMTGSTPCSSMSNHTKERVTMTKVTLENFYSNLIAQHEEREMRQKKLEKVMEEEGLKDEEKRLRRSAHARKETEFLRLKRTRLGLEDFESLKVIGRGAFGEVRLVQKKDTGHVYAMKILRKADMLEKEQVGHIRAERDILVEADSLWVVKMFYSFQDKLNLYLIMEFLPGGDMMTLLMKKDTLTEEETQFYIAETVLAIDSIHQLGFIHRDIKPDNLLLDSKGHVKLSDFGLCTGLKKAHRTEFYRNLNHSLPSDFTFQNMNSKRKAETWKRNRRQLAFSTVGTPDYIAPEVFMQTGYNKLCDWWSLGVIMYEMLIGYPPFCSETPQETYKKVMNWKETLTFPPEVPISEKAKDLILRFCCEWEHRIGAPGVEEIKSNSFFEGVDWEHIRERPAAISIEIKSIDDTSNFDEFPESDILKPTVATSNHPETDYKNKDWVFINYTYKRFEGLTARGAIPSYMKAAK
The target of test [36] is STK39 (human) (UniProt Q9UEW8).
The target in test [37] is TAOK2 (human) (UniProt Q9UL54).
The target in test [38] is TBK1 (human) (UniProt Q9UHD2).
The target of test [39] is VRK2 (human) (UniProt Q86Y07).
Test [40] has as its target YSK4 (human) (UniProt Q56UN5).
Test [41] concerns ABL1 (human), P00519 [F317L].
Test [42] has as its system ABL1 (human), P00519 [T315I].

Our source for the kinase still bound, per cent of control values is the kinase profiling compilation of Christmann-Franck et al. (2016).

CAMKK1 (human), sequence (Q8N5S9 whole entry, looked up): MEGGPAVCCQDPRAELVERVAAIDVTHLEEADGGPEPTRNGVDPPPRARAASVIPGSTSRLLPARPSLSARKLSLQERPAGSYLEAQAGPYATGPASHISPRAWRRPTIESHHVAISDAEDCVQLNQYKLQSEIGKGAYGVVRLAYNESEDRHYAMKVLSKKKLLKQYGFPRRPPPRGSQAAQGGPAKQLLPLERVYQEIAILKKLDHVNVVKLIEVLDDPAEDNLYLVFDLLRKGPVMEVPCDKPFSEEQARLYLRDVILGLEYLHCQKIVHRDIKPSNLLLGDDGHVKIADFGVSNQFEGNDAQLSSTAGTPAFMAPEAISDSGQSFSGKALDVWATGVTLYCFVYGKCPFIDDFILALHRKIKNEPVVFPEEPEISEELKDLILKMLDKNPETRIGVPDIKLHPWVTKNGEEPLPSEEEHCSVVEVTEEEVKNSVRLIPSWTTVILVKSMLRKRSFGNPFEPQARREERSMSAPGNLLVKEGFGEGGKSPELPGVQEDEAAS
YSK4 (human), sequence (Q56UN5 whole entry, looked up): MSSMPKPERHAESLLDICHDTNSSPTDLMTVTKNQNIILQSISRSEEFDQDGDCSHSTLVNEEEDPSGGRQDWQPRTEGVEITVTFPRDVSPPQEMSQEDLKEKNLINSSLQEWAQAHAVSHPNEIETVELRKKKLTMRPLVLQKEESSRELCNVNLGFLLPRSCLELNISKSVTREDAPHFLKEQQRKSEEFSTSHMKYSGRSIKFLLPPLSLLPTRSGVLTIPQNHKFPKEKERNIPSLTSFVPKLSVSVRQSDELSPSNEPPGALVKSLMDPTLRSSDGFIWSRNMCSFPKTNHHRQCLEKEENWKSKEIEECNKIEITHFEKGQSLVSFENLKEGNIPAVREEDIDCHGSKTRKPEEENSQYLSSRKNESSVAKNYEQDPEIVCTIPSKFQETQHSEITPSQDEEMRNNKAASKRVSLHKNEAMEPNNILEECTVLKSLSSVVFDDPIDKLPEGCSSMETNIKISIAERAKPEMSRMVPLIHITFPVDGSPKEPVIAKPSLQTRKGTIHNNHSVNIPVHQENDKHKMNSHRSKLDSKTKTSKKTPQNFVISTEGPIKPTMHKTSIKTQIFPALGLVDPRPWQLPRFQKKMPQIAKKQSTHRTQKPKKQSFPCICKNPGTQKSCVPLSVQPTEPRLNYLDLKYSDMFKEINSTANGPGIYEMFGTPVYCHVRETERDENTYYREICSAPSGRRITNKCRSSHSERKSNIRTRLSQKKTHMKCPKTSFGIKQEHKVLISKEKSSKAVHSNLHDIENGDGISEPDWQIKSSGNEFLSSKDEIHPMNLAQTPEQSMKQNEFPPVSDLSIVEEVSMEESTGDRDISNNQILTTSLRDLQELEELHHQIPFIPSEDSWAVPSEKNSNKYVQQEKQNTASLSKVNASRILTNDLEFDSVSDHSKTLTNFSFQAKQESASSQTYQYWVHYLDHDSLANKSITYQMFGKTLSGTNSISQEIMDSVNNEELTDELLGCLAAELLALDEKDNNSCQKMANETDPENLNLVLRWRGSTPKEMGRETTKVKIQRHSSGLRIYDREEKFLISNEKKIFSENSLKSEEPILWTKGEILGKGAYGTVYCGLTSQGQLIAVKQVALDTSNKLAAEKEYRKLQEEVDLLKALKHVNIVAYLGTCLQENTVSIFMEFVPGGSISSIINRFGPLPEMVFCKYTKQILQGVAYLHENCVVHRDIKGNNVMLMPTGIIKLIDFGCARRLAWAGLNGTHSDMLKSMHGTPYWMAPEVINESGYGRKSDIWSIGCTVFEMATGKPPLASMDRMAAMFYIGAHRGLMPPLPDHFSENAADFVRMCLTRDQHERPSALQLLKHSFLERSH

For `CCN1CCN(Cc2ccc(NC(=O)c3ccc(C)c(/C=C/c4cnc(Nc5cc(N6CCNCC6)nc(C)n5)cn4)c3)cc2C(F)(F)F)CC1`, the kinase still bound, per cent of control amounted to 92% in [1]; 98% in [2]; 46% in test [3]; 55% in [4]; 14% in test [5]; 69% in test [6]. Besides, the kinase still bound, per cent of control in test [7] turned out to be 74%; in test [8], 65%; in test [9] it was 1.6%; in test [10] it was 8.6%; in test [11], 73%; in test [12] it was 49%. Moreover, the kinase still bound, per cent of control in test [13] is 71%; in test [14], 77%; in test [15], 33%; in test [16], 75%; in [17], 49%; in test [18], 75%. Besides, the kinase still bound, per cent of control in test [19] turned out to be 93%; in test [20], 100%; in test [21] it was 93%; in test [22] it was 40%; in [23], 28%; in [24] it was 100%. The kinase still bound, per cent of control in test [25] was 76%; in [26] it was 87%; in test [27], 94%; in [28], 94%; in test [29], 61%; in test [30] it was 65%. The kinase still bound, per cent of control in [31] worked out at 100%; in test [32] it was 69%; in test [33], 80%; in test [34], 100%; in test [35] it was 79%; in [36] it was 100%. Moreover, the kinase still bound, per cent of control in test [37] is 5.7%; in [38] it was 96%; in [39], 62%; in test [40] it was 0%.
Regarding `COc1cc(N2CCC(N3CCN(C)CC3)CC2)ccc1Nc1ncc(Cl)c(Nc2ccccc2S(=O)(=O)C(C)C)n1`, the kinase still bound, per cent of control in test [41] is 0.7%; in test [42], 0.1%; in test [2], 0.2%.
`CCN1CCN(Cc2ccc(NC(=O)c3ccc(C)c(Oc4ccnc5[nH]ccc45)c3)cc2C(F)(F)F)CC1`: the kinase still bound, per cent of control in [41] stood at 0.1%; in test [42] it was 0%.
For the compound `CCOc1cc(N2CCC(N3CCCCC3)CC2)ccc1Nc1nc(Nc2ccccc2S(=O)(=O)C(C)C)c2cn[nH]c2n1`, the kinase still bound, per cent of control amounted to 100% in test [1]; 46% in test [2]; 100% in test [3]; 100% in test [4]; 55% in [5]; 2.8% in test [6]. Also, the kinase still bound, per cent of control amounted to 90% in [7]; 25% in [8]; 71% in [9]; 100% in [10]; 100% in test [11]; 89% in test [12]. For the same compound, the kinase still bound, per cent of control in test [13] amounted to 89%; in test [14], 87%; in test [15] it was 100%; in test [16], 4.8%; in [17], 100%; in [18], 82%. The kinase still bound, per cent of control stood at 99% in test [19]; 100% in test [20]; 100% in [21]; 100% in test [22]; 74% in [23]; 100% in test [24]. The kinase still bound, per cent of control in test [25] stood at 0.05%; in [26] it was 100%; in test [27] it was 100%; in test [28], 100%; in [29], 100%; in test [30] it was 82%. For the same compound, the kinase still bound, per cent of control in test [31] came to 75%; in [32] it was 100%; in test [33], 92%; in test [34] it was 100%; in test [35] it was 98%; in test [36], 37%. The kinase still bound, per cent of control in test [37] stood at 66%; in test [38], 100%; in [39] it was 68%; in test [40], 100%.
